# Columns and labels:
# [1] = test system: U87 MG (malignant glioma cell); assay: Solid tumor cell growth inhibition, MTT, 72 h (Example 7); type: cell-based; conditions: Homo sapiens, U-87 MG
# Method in brief: (§1)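 First, 4000 cells per well are plated in DMEM high glucose with 10% fetal bovine serum and incubated 24 h (37 °C, 5% CO2). Next, derivatives are added at different concentrations. After 72 h, MTT gives viable cell concentration, expressed as % of untreated control.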
# [2] = test system: CNE (nasopharyngeal carcinoma cell); assay: as above; type: cell-based; conditions: Homo sapiens
# Method in brief: as §1
# [3] = test system: SK-OV-3 (ovarian cancer cell); assay: as above; type: cell-based; conditions: Homo sapiens
# Method in brief: as §1
# [4] = test system: MGC 803 (human gastric cancer cell); assay: as above; type: cell-based; conditions: Homo sapiens
# Method in brief: as §1
# [5] = test system: Becap37 (human breast cancer cell); assay: as above; type: cell-based; conditions: Homo sapiens; 72 h, MTT, Becap-37
# Method in brief: as §1
# [6] = test system: Huh7 (human liver cancer cell); assay: as above; type: cell-based; conditions: Homo sapiens; 72 h, MTT, Huh-7
# Method in brief: as §1
# [7] = test system: A549 (human lung cancer); assay: as above; type: cell-based; conditions: Homo sapiens; 72 h, MTT, A549
# Method in brief: as §1
# [8] = test system: RKO (human colon adenocarcinoma cell); assay: as above; type: cell-based; conditions: Homo sapiens; 72 h, MTT, RKO
# Method in brief: as §1
# [9] = test system: Hela (human cervical cancer cell); assay: as above; type: cell-based; conditions: Homo sapiens; 72 h, MTT, Hela
# Method in brief: as §1
# [10] = test system: PC-3 (prostate cancer); assay: as above; type: cell-based, human; conditions: Homo sapiens; 72 h, MTT, PC-3
# Method in brief: as §1
# [11] = test system: Hep-2 (laryngeal carcinoma); assay: as above; type: cell-based, human; conditions: Homo sapiens; 72 h, MTT, Hep 2
# Method in brief: as §1
# [12] = test system: CaES-17 (esophageal cancer cell); assay: as above; type: cell-based, human; conditions: Homo sapiens, CaEs17; 72 h, MTT, CAES-17
# Method in brief: as §1
# [13] = test system: MG63 (osteosarcoma); assay: as above; type: cell-based, human; conditions: Homo sapiens; 72 h, MTT, MG-63
# Method in brief: as §1
# [14] = test system: PANC-1 (pancreatic cancer); assay: as above; type: cell-based, human; conditions: Homo sapiens; 72 h, MTT, PANC-1
# Method in brief: as §1
# [15] = test system: K562/adr (drug-resistant, chronic myeloid leukemia, CML); assay: Leukemia cell growth inhibition, MTT, 72 h (Example 5); type: cell-based, human; conditions: Homo sapiens, K562/Adr; 72 h, MTT
# Method in brief: (§2)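 Seed 6000 leukemia cells per well in 1640 medium containing 10% FBS. Add test compounds at different concentrations, mix, incubate 72 hours at 37° C in 5% CO2. Determine viable cells by MTT.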
# [16] = test system: NB4 (acute promyelocytic leukemia, AML); assay: as above; type: cell-based, human; conditions: Homo sapiens; 72 h, MTT
# Method in brief: as §2
# [17] = test system: Jurkat (acute lymphoblastic leukemia, ALL); assay: as above; type: cell-based, human; conditions: Homo sapiens, Jurkat; 72 h, MTT
# Method in brief: as §2
# [18] = test system: Kasumi-1 (acute myeloid leukemia M2 type, AML-M2); assay: as above; type: cell-based, human; conditions: Homo sapiens, Kasumi 1
# Method in brief: as §2
# [19] = test system: H9 (acute lymphoblastic leukemia, ALL); assay: as above; type: cell-based, human; conditions: Homo sapiens; 72 h, MTT
# Method in brief: as §2
# [20] = test system: RPMI8226 (multiple myeloma); assay: Multiple myeloma cell growth inhibition, MTT, 72 h (Example 6); type: cell-based, human; conditions: Homo sapiens, RPMI-8226; 72 h, MTT, RPMI8226
# Method in brief: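 Viability was read by MTT after 72 h of compound exposure at 37 °C, 5% CO2. Each well held 6000 RPMI8226 cells in 1640 medium containing 10% fetal bovine serum, with derivatives added at various concentrations.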
IC50 [1] [µg/mL],IC90 [1] [µg/mL],IC50 [2] [µg/mL],IC90 [2] [µg/mL],IC50 [3] [µg/mL],IC90 [3] [µg/mL],IC50 [4] [µg/mL],IC90 [4] [µg/mL],IC50 [5] [µg/mL],IC90 [5] [µg/mL],IC50 [6] [µg/mL],IC90 [6] [µg/mL],IC50 [7] [µg/mL],IC90 [7] [µg/mL],IC50 [8] [µg/mL],IC90 [8] [µg/mL],IC50 [9] [µg/mL],IC90 [9] [µg/mL],IC50 [10] [µg/mL],IC90 [10] [µg/mL],Compound,further results
0.28,0.67,1.32,3.84,3.5,> 16,1.49,7.42,1.08,4.5,1.3,2.41,3.9,16,0.45,1.25,1.25,3.61,1.82,3.32,COc1ccc2cc1Oc1ccc(cc1)C[C@H]1c3cc(c(OC)cc3CCN1C)Oc1c(OC)c(OC)c(CN3CCCC(CO)C3)c3c1[C@H](C2)N(C)CC3 (stereo partly drawn) [BS-TE-351],IC50 [11]: 3.07 µg/mL; IC90 [11]: 8.13 µg/mL; IC50 [12]: 1.38 µg/mL; IC90 [12]: 8.19 µg/mL; IC50 [13]: 1.2 µg/mL; IC90 [13]: 2 µg/mL; IC50 [14]: 1.87 µg/mL; IC90 [14]: 7.79 µg/mL; IC50 [15]: 0.82 µg/mL; IC90 [15]: 3.11 µg/mL; IC50 [16]: 0.7 µg/mL; IC90 [16]: 1.9 µg/mL; IC50 [17]: 1 µg/mL; IC90 [17]: 5.02 µg/mL; IC50 [18]: 0.76 µg/mL; IC90 [18]: 3.59 µg/mL; IC50 [19]: 0.72 µg/mL; IC90 [19]: 1.58 µg/mL; IC50 [20]: 0.09 µg/mL; IC90 [20]: 2.43 µg/mL
0.33,1.01,1.57,2.83,2,14.4,0.88,6,1.1,2,1.19,1.68,3.3,12.8,0.58,1.01,1.09,2.56,3,4.7,COc1ccc2cc1Oc1ccc(cc1)C[C@H]1c3cc(c(OC)cc3CCN1C)Oc1c(OC)c(OC)c(CNCc3cccs3)c3c1[C@H](C2)N(C)CC3 [BS-TE-359],IC50 [11]: 4.6 µg/mL; IC90 [11]: 8.29 µg/mL; IC50 [12]: 1.61 µg/mL; IC90 [12]: 7.67 µg/mL; IC50 [13]: 1.1 µg/mL; IC90 [13]: 1.98 µg/mL; IC50 [14]: 2.44 µg/mL; IC90 [14]: 8.04 µg/mL; IC50 [15]: 0.36 µg/mL; IC90 [15]: 2.18 µg/mL; IC50 [16]: 0.4 µg/mL; IC90 [16]: 1 µg/mL; IC50 [17]: 0.65 µg/mL; IC90 [17]: 5 µg/mL; IC50 [18]: 0.42 µg/mL; IC90 [18]: 1.83 µg/mL; IC50 [19]: 1.25 µg/mL; IC90 [19]: 2.3 µg/mL; IC50 [20]: 0.05 µg/mL; IC90 [20]: 1.42 µg/mL
0.98,4.02,4.8,10.4,8,> 16,3.04,8,3.2,8,1.33,3.88,6.2,16,1.07,2.6,1.2,3.89,1.88,3.83,COc1ccc2cc1Oc1ccc(cc1)C[C@H]1c3cc(c(OC)cc3CCN1C)Oc1c(OC)c(OC)c(CN3CCC(C#N)CC3)c3c1[C@H](C2)N(C)CC3 [BS-TE-323],IC50 [11]: 2.49 µg/mL; IC90 [11]: 5.59 µg/mL; IC50 [12]: 3.6 µg/mL; IC90 [12]: 23 µg/mL; IC50 [13]: 2.6 µg/mL; IC90 [13]: 5.5 µg/mL; IC50 [14]: 2.46 µg/mL; IC90 [14]: 7.1 µg/mL; IC50 [15]: 0.21 µg/mL; IC90 [15]: 2.16 µg/mL; IC50 [16]: 1.5 µg/mL; IC90 [16]: 4.5 µg/mL; IC50 [17]: 1.28 µg/mL; IC90 [17]: 9 µg/mL; IC50 [18]: 1.23 µg/mL; IC90 [18]: 4.6 µg/mL; IC50 [19]: 0.95 µg/mL; IC90 [19]: 2.13 µg/mL; IC50 [20]: 0.12 µg/mL; IC90 [20]: 3.88 µg/mL

# From patent US9133207B2, “Tetrandrine derivatives with substituted 5-carbon, preparation method and use thereof” (Hangzhou Bensheng Pharmaceutical Co., Ltd., priority 2011, dated 2015)
